The source of these data is patent US9156811B2 (priority 2008, dated 2015).

Like-named read-outs stand apart in the source and are kept apart here.

Assay [1] deals with T. brucei N-myristoyl transferase (Trypanosoma brucei brucei (strain 927/4 GUTat10.1), UniProt Q388H8). As to the kind of experiment: biochemical. It counts as biochemical. To be noted: read-out: IC50 (μM) NMT Enzyme.
The subject of assay [2] is Trypanosome (T. brucei brucei). In words: In-vitro antitrypanosomal efficacy assay (cell growth, resazurin). Format: cell-based.
Protocol: To column 12, 200 μl media was added to provide a no cells control. Plates were then incubated at 37° C. in an atmosphere of 5% CO2 for 69 hours, before the addition of 20 μl of 500 μM rezasurin solution, and a further incubation period of 4 hours. […] Concentration effect curves were fitted using non-linear regression using XLFit 4.2 and EC50 values determined.
The mark [3] stands for this setting: value with no enzyme tag in the cell, taken as T. brucei NMT.
The mark [4] stands for this setting: value printed without enzyme tag in the NMT Enzyme column (taken as T. brucei NMT).
The mark [5] stands for this setting: T. brucei brucei, blood stream form, variant 221.

T. brucei N-myristoyl transferase, sequence (Q388H8 1-446): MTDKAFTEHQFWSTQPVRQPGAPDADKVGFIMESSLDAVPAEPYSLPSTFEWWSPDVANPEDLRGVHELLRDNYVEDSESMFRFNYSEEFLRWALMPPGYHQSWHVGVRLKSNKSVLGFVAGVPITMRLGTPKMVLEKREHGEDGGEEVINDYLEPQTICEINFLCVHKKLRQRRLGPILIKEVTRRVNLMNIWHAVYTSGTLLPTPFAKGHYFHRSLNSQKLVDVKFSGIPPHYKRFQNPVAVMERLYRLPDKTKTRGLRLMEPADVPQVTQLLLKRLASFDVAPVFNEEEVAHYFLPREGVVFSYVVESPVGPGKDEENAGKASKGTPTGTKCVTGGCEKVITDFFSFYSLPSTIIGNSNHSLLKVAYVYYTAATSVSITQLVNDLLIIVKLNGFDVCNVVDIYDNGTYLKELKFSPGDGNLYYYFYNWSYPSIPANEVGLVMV

In the case of `Cc1nn(C)c(C)c1N[S+](=O)([O-])c1c(Cl)cc(-c2ccnc(NCCN)c2)cc1Cl`, in assay [1] (setting [3]), the half-inhibitory concentration (IC50) worked out at 1 µM. The “ED50 (μM) T. brucei” value in assay [2] (T. brucei cell growth) was greater than 1 µM.
For `Cc1nn(C)c(C)c1N[S+](=O)([O-])c1ccc(NCCCN2CCN(Cc3ccccc3)CC2)nc1` [DD86299] the same measures were 1 µM and greater than 1 µM.
Take `Cc1nn(C)c(C)c1N[S+](=O)([O-])c1ccc2c(c1)OCCO2` [DDD16771]: the 50% inhibitory concentration (IC50) in assay [1] (setting [4]) is 4 µM. Further, the “ED50 (μM) T. brucei” value in assay [2] (T. brucei cell growth) was greater than 1 µM.
For `Cc1cc(N2CCCC2=O)cc(C)c1[S+](=O)([O-])Nc1c(C)nn(C)c1C` [DDD22988] the same measures were 8.3 µM and greater than 1 µM.
Turning to `Cc1nn(C)c(C)c1N[S+](=O)([O-])c1ccccc1` [DDD48025], the concentration for half-maximal inhibition (IC50) in assay [1] (setting [4]) turned out to be 11.8 µM. Moreover, the “ED50 (μM) T. brucei” value in assay [2] (T. brucei cell growth) is greater than 1 µM.
For `Cc1nn(C)c(C)c1N[S+](=O)([O-])c1cc(Cl)sc1Cl` [DDD61495] the same measures were 6.4 µM and greater than 1 µM.
Consider `COc1ccc(OC)c([S+](=O)([O-])Nc2c(C)nn(C)c2C)c1` [DDD64750], for which the IC50 in assay [1] (setting [4]) worked out at 30 µM. The “ED50 (μM) T. brucei” value in assay [2] (T. brucei cell growth) was greater than 1 µM.
In the case of `Cc1nn(C)c(C)c1N[S+](=O)([O-])c1ccc2c(c1)OCCCO2` [DDD71230], in assay [1] (setting [4]), the IC50 was 3.5 µM. Besides, in assay [2] (T. brucei cell growth), the “ED50 (μM) T. brucei” value was greater than 1 µM.
For `CC(=O)c1ccc([S+](=O)([O-])Nc2c(C)nn(C)c2C)cc1` [DDD71232], in that order: 42 µM and greater than 1 µM.
For `COc1ccc([S+](=O)([O-])Nc2c(C)nn(C)c2C)cc1Br` [DDD71233], in that order: 2.6 µM and greater than 1 µM.
For `Cc1nn(C)c(C)c1N[S+](=O)([O-])c1ccc(OC(F)(F)F)cc1` [DDD71234] the same measures were 2.7 µM and greater than 1 µM.
As to `CC(=O)N1CCc2cc([S+](=O)([O-])Nc3c(C)nn(C)c3C)ccc21` [DDD71237], the IC50 in assay [1] (setting [4]) came to 8.8 µM. The “ED50 (μM) T. brucei” value in assay [2] (T. brucei cell growth) was greater than 1 µM.
For `Cc1nn(C)c(C)c1N[S+](=O)([O-])c1ccc(C#N)cc1` [DDD71238], in that order: 32.6 µM and greater than 1 µM.
`Cc1nn(C)c(C)c1N[S+](=O)([O-])c1cccc(Br)c1` [DDD71240]: the IC50 in assay [1] (setting [4]) stood at 8 µM. The “ED50 (μM) T. brucei” value in assay [2] (T. brucei cell growth) is greater than 1 µM.
For `Cc1nn(C)c(C)c1N[S+](=O)([O-])c1ccc(C(C)C)cc1` [DDD71241], in that order: 1.5 µM and greater than 1 µM.
For `CCC(C)c1ccc([S+](=O)([O-])Nc2c(C)nn(C)c2C)cc1` (centres unmarked) [DDD71242], in that order: 4.3 µM and greater than 1 µM.
Take `Cc1cc(C(C)(C)C)cc(C)c1[S+](=O)([O-])Nc1c(C)nn(C)c1C` [DDD71243]: the concentration for half-maximal inhibition (IC50) in assay [1] (setting [4]) stood at 0.5 µM. The “ED50 (μM) T. brucei” value in assay [2] (T. brucei cell growth) came out at 5.8 µM.
As for `Cc1nn(C)c(C)c1N[S+](=O)([O-])c1ccc2c(c1)CC(=O)N2` [DDD71244], in assay [1] (setting [4]), the 50% inhibitory concentration (IC50) was determined as 15.9 µM. In assay [2] (T. brucei cell growth), the “ED50 (μM) T. brucei” value was greater than 1 µM.
Consider `Cc1nn(C)c(C)c1N[S+](=O)([O-])c1ccccc1F` [DDD71245], for which the IC50 in assay [1] (setting [4]) was determined as 5.6 µM. The “ED50 (μM) T. brucei” value in assay [2] (T. brucei cell growth) was greater than 1 µM.
Consider `Cc1nn(C)c(C)c1N[S+](=O)([O-])c1ccc2ccccc2c1` [DDD71246], for which, in assay [1] (setting [4]), the half-inhibitory concentration (IC50) stood at 8.4 µM. Moreover, the “ED50 (μM) T. brucei” value in assay [2] (T. brucei cell growth) is greater than 1 µM.
For `Cc1nn(C)c(C)c1N[S+](=O)([O-])c1ccc2c(c1)CCC(=O)N2` [DDD71247] the same measures were 3.4 µM and greater than 1 µM.
For `Cc1nn(C)c(C)c1N[S+](=O)([O-])c1c(C)c(C)c(C)c(C)c1C` [DDD71248], in that order: 62.5 µM and greater than 1 µM.
For `Cc1ccc(C(C)(C)C)cc1[S+](=O)([O-])Nc1c(C)nn(C)c1C` [DDD71251] the same measures were greater than 100 µM and greater than 1 µM.
Take `Cc1nn(C)c(C)c1N[S+](=O)([O-])c1ccc(Cl)c(C(F)(F)F)c1` [DDD71252]: the 50% inhibitory concentration (IC50) in assay [1] (setting [4]) came out at 17.4 µM. In assay [2] (T. brucei cell growth), the “ED50 (μM) T. brucei” value is greater than 1 µM.
In the case of `Cc1nn(C)c(C)c1N[S+](=O)([O-])c1ccc2c(c1)CCC2` [DDD71253], the IC50 in assay [1] (setting [4]) was 5.6 µM. Moreover, the “ED50 (μM) T. brucei” value in assay [2] (T. brucei cell growth) was greater than 1 µM.
As to `Cc1nn(C)c(C)c1N[S+](=O)([O-])c1ccc(N2CCOCC2)nc1` [DDD71274], the IC50 in assay [1] (setting [4]) worked out at 2 µM. For the same compound, the “ED50 (μM) T. brucei” value in assay [2] (T. brucei cell growth) was greater than 1 µM.
For `COc1ccc(OCCC[S+](=O)([O-])Nc2c(C)nn(C)c2C)cc1` [DDD71275], in that order: 62 µM and greater than 1 µM.
Consider `Cc1nn(C)c(C)c1N[S+](=O)([O-])c1ccc(C2OCCO2)cc1` [DDD71276], for which, in assay [1] (setting [4]), the concentration for half-maximal inhibition (IC50) worked out at 9.5 µM. The “ED50 (μM) T. brucei” value in assay [2] (T. brucei cell growth) is greater than 1 µM.
For `COc1cc(C)c([S+](=O)([O-])Nc2cnc3ccccn23)c(C)c1C` [DDD71277] the same measures were 95 µM and greater than 1 µM.
With `Cc1nc(-c2ccc([S+](=O)([O-])Nc3c(C)nn(C)c3C)cc2)cs1` [DDD71278], in assay [1] (setting [4]), the IC50 was determined as 12.1 µM. Besides, the “ED50 (μM) T. brucei” value in assay [2] (T. brucei cell growth) was greater than 1 µM.
`COc1cc(C)c([S+](=O)([O-])Nc2cccnc2C)c(C)c1C` [DDD71279]: in assay [1] (setting [4]), the IC50 amounted to 10 µM. The “ED50 (μM) T. brucei” value in assay [2] (T. brucei cell growth) was greater than 1 µM.
For `COc1cc(C)c([S+](=O)([O-])Nc2ccncc2)c(C)c1C` [DDD71280], in that order: greater than 100 µM and greater than 1 µM.
For `Cc1nn(C)c(C)c1N[S+](=O)([O-])c1ccc2c(c1)OCCN2C` [DDD71281] the same measures were 16.1 µM and greater than 1 µM.
Take `Cc1nn(C)c(C)c1N[S+](=O)([O-])c1ccc2c(c1)OCO2` [DDD71282]: the IC50 in assay [1] (setting [4]) turned out to be 4 µM. Moreover, the “ED50 (μM) T. brucei” value in assay [2] (T. brucei cell growth) is greater than 1 µM.
For `Cc1nn(C)c(C)c1N[S+](=O)([O-])c1cccc2cccnc12` [DDD71283], in that order: 7.4 µM and greater than 1 µM.
For `COc1cc(C)c([S+](=O)([O-])Nc2onc(C)c2C)c(C)c1C` [DDD71284] the same measures were greater than 100 µM and greater than 1 µM.
For `COc1cc(C)c([S+](=O)([O-])Nc2c(C)noc2C)c(C)c1C` [DDD71285], in that order: 19.3 µM and greater than 1 µM.
For `COc1ccc([S+](=O)([O-])Nc2c(C)nn(C)c2C)cc1` [DDD71286], the IC50 in assay [1] (setting [4]) was 9.8 µM. The “ED50 (μM) T. brucei” value in assay [2] (T. brucei cell growth) is greater than 1 µM.
For `CC(=O)Nc1ccc([S+](=O)([O-])Nc2c(C)nn(C)c2C)cc1` [DDD71287] the same measures were 2.8 µM and greater than 1 µM.
For `COc1cc(C)c([S+](=O)([O-])Nc2cccnc2)c(C)c1C` [DDD71288], in that order: greater than 100 µM and greater than 1 µM.
For `COc1ccc([S+](=O)([O-])Nc2c(C)nn(C)c2C)cc1OC` [DDD71290] the same measures were 41 µM and greater than 1 µM.
Take `COc1cc(C)c([S+](=O)([O-])Nc2ccccc2)c(C)c1C` [DDD71292]: in assay [1] (setting [4]), the IC50 is greater than 100 µM. In assay [2] (T. brucei cell growth), the “ED50 (μM) T. brucei” value was greater than 1 µM.
In the case of `Cc1nn(C)c(C)c1N[S+](=O)([O-])Cc1ccccc1` [DDD71293], in assay [1] (setting [4]), the IC50 is greater than 100 µM. For the same compound, the “ED50 (μM) T. brucei” value in assay [2] (T. brucei cell growth) was greater than 1 µM.
For `Cc1nn(C)c(C)c1N[S+](=O)([O-])c1ccc(-n2cccn2)cc1` [DDD71294] the same measures were 4.8 µM and greater than 1 µM.
For `COc1cc(C)c([S+](=O)([O-])Nc2ccncn2)c(C)c1C` [DDD71295], in that order: 30 µM and greater than 1 µM.
For `COc1cc(C)c([S+](=O)([O-])NCc2c(C)nn(C)c2C)c(C)c1C` [DDD71296], the IC50 in assay [1] (setting [4]) is greater than 100 µM. Further, the “ED50 (μM) T. brucei” value in assay [2] (T. brucei cell growth) was greater than 1 µM.
For `Cc1nn(C)c(C)c1N[S+](=O)([O-])c1ccc(-c2ccccc2)cc1` [DDD71297], in that order: 10.5 µM and greater than 1 µM.
For `Cc1nn(C)c(C)c1N[S+](=O)([O-])c1ccc(Cl)c(Cl)c1` [DDD00071594], in that order: 9.9 µM and greater than 1 µM.
Regarding `COc1cc(C)c([S+](=O)([O-])N2CCCc3ncccc32)c(C)c1C` [DDD71600], the IC50 in assay [1] (setting [4]) was 51 µM. In addition, the “ED50 (μM) T. brucei” value in assay [2] (T. brucei cell growth) is greater than 1 µM.
For `COc1cc(C)c([S+](=O)([O-])Nc2c(C)n[nH]c2C)c(C)c1C` [DDD71601] the same measures were greater than 100 µM and greater than 1 µM.
`Cc1nn(C)c(C)c1N(CC(F)(F)F)[S+](=O)([O-])c1c(Cl)cc(CCCOC2CCN(C)CC2)cc1Cl` [DDD100803]: the “ED50 (μM) T. brucei” value in assay [2] (setting [5]) was found to be 0.008 µM.
Same read-out and setting: in the case of `Cc1nn(C)c(C)c1N(C(F)F)[S+](=O)([O-])c1c(Cl)cc(Br)cc1Cl` [DDD100805, 4-bromo-2,6-dichloro-N-(difluoromethyl)-N-(1,3,5-trimethyl-1H-pyrazol-4-yl)benzenesulfonamide] it was greater than 1 µM; in that of `Cc1c(N[S+](=O)([O-])c2ccc(-c3cccc(C(C)(C)N)c3)cc2)c(CC(C)C)nn1C` [DDD100870], 0.013 µM; in that of `Cc1nn(C)c(C)c1N(C(F)F)[S+](=O)([O-])c1c(Cl)cc(CCCOC2CN3CCC2CC3)cc1Cl` (centres unmarked) [DDD100872], 0.002 µM.
Same read-out and setting: in the case of `Cc1c(N(C(F)F)[S+](=O)([O-])c2c(Cl)cc(-c3ccnc(N4CCNCC4)c3)cc2Cl)c(CC(C)C)nn1C` [DDD100886] it was 0.004 µM; in that of `Cc1nn(C)c(C)c1N(C(F)F)[S+](=O)([O-])c1ccc(-c2ccnc(N3CCNCC3)c2)cc1` [DDD100888], 0.003 µM.
On to `Cc1nn(C)c(C)c1N(C(F)F)[S+](=O)([O-])c1ccc(-c2cccc(C3CCNCC3)c2)cc1` [DDD100891], for which the “ED50 (μM) T. brucei” value in assay [2] (setting [5]) was determined as 0.129 µM.
